According to US12486253B2, “Therapeutics for the degradation of mutant BRAF” (C4 THERAPEUTICS, INC., priority 2021, dated 2025):
Where “and” joins values, the source holds several entries; their conditions need not be identical. Equal entries are not always repeated. Where two headings read alike, the source gives them in different places.

Target: BRAF V600E (Homo sapiens, UniProt P15056, V600E)
Assay: HiBiT cellular BRAF^V600E degradation assay
Assay type: cell-based
Details: for DC50: concentration at which 50% of total cellular BRAF^V600E is degraded; for Emax: read-out: HiBit 24 h Emax
[1] = A375.10 cells, 24 h, residual protein remaining in the cell

Chain of BRAF V600E (P15056 whole entry V600E): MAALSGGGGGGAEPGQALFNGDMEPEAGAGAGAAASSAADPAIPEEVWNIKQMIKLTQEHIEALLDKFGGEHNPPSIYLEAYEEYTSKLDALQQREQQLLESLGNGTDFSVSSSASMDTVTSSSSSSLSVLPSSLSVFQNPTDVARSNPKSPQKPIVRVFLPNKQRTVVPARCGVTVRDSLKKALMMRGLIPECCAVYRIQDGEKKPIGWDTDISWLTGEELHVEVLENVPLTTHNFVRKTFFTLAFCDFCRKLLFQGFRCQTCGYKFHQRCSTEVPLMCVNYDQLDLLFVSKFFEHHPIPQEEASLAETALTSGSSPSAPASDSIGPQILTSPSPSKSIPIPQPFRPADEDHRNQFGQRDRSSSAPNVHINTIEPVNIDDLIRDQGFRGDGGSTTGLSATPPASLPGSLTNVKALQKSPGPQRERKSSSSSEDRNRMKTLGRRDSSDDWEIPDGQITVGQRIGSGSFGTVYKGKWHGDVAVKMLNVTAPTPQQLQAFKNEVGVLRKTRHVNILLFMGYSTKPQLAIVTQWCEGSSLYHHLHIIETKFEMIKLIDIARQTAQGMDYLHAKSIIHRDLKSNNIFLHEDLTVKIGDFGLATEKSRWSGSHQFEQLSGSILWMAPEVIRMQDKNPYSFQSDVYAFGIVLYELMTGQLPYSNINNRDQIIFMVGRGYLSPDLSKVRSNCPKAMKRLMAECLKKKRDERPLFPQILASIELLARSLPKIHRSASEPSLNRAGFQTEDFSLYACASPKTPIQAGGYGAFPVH

CCN(C)S(=O)(=O)Nc1ccc(F)c(Oc2ccc3ncn([C@@H]4COC5(CCN(C(=O)CN6CCC(c7ccc(NC8CCC(=O)NC8=O)cc7F)CC6)CC5)C4)c(=O)c3c2)c1C#N (single isomer, unassigned) [Example 33]
DC50 (A375.10 cells, 24 h): 32.6 nM
Emax [1]: 8.77%

CCN(C)S(=O)(=O)Nc1ccc(F)c(Oc2ccc3ncn([C@H]4COC5(CCN(C(=O)CN6CCC(c7ccc(NC8CCC(=O)NC8=O)cc7F)CC6)CC5)C4)c(=O)c3c2)c1C#N (single isomer, unassigned) [Example 34]
DC50 (A375.10 cells, 24 h): 29.9 nM
Emax [1]: 10.8%

CCN(C)S(=O)(=O)Nc1ccc(F)c(Oc2ccc3ncn([C@H]4CCC5(CCN(C(=O)CN6CCC(c7ccc(NC8CCC(=O)NC8=O)cc7F)CC6)CC5)C4)c(=O)c3c2)c1C#N (single isomer, unassigned) [Example 40]
DC50 (A375.10 cells, 24 h): 8.13 nM
Emax [1]: 7.08%

CCN(C)S(=O)(=O)Nc1ccc(F)c(Oc2ccc3ncn([C@@H]4CCC5(CCN(C(=O)CN6CCC(c7ccc(NC8CCC(=O)NC8=O)cc7F)CC6)CC5)C4)c(=O)c3c2)c1C#N (single isomer, unassigned) [Example 41]
DC50 (A375.10 cells, 24 h): 16.1 nM
Emax [1]: 9.27%

CCN(C)S(=O)(=O)Nc1ccc(F)c(Oc2ccc3ncn([C@H]4COC5(CCN(C(=O)CN6CCC(c7ccc(NC8CCC(=O)NC8=O)cc7F)CC6)CC5)C4)c(=O)c3c2Br)c1C#N (single isomer, unassigned) [Example 73]
DC50 (A375.10 cells, 24 h): 30.7 nM
Emax [1]: 12%

CCN(C)S(=O)(=O)Nc1ccc(F)c(Oc2ccc3ncn([C@H]4COC5(CCN(C(=O)CN6CCC(c7ccc(NC8CCC(=O)NC8=O)cc7F)CC6)CC5)C4)c(=O)c3c2Cl)c1C#N (single isomer, unassigned) [Example 77]
DC50 (A375.10 cells, 24 h): 31.8 nM
Emax [1]: 9.51%

CCN(C)S(=O)(=O)Nc1ccc(F)c(Oc2ccc3ncn([C@@H]4COC5(CCN(C(=O)CN6CCC(c7ccc(NC8CCC(=O)NC8=O)cc7F)CC6)CC5)C4)c(=O)c3c2Cl)c1C#N (single isomer, unassigned) [Example 78]
DC50 (A375.10 cells, 24 h): 49.7 nM
Emax [1]: 9.7%

CCN(C)S(=O)(=O)Nc1ccc(F)c(Oc2ccc3ncn([C@H]4CCC5(CCN(C(=O)CN6CCC(c7ccc(NC8CCC(=O)NC8=O)cc7F)CC6)CC5)C4)c(=O)c3c2Cl)c1C#N (single isomer, unassigned) [Example 79]
DC50 (A375.10 cells, 24 h): 20.1 nM
Emax [1]: 12.9%

CCN(C)S(=O)(=O)Nc1ccc(F)c(Oc2ccc3ncn([C@@H]4CCC5(CCN(C(=O)CN6CCC(c7ccc(NC8CCC(=O)NC8=O)cc7F)CC6)CC5)C4)c(=O)c3c2Cl)c1C#N (single isomer, unassigned) [Example 80]
DC50 (A375.10 cells, 24 h): 30.5 nM
Emax [1]: 13.8%

CCN(C)S(=O)(=O)Nc1ccc(F)c(Nc2ccc3ncn([C@H]4COC5(CCN(C(=O)CN6CCC(c7ccc(NC8CCC(=O)NC8=O)cc7F)CC6)CC5)C4)c(=O)c3c2)c1C#N (single isomer, unassigned) [Example 82]
DC50 (A375.10 cells, 24 h): 20.7 nM
Emax [1]: 6.45%

CCN(C)S(=O)(=O)Nc1ccc(F)c(Oc2ccc3ncn([C@H]4COC5(CCN(C6CCC(c7ccc(NC8CCC(=O)NC8=O)cc7F)CC6)CC5)C4)c(=O)c3c2)c1C#N (single isomer, unassigned) [Example 83]
DC50 (A375.10 cells, 24 h): 16.3 nM
HiBit 24 h Emax [1]: 27.77%

CCN(C)S(=O)(=O)Nc1ccc(F)c(Oc2ccc3ncn([C@H]4COC5(CCN(C6CCC(c7ccc(NC8CCC(=O)NC8=O)cc7F)CC6)CC5)C4)c(=O)c3c2)c1C#N (single isomer, unassigned) [Example 131]
HiBit 24 h Emax [1]: 8.5% and 8.05%

CCN(C)S(=O)(=O)Nc1ccc(F)c(Oc2ccc3ncn(C4COC5(CCN(C(=O)CN6CCC(c7ccc8c(C9CCC(=O)NC9=O)nn(C)c8c7)CC6)CC5)C4)c(=O)c3c2)c1C#N (single isomer, unassigned) [Example 150]
DC50 (A375.10 cells, 24 h): 12.4 nM
Emax [1]: 11.5%

CCN(C)S(=O)(=O)Nc1ccc(F)c(Oc2ccc3ncn([C@H]4COC5(CCN(C(=O)C[C@H]6CC[C@H](c7ccc8c(C9CCC(=O)NC9=O)nn(C)c8c7)CC6)CC5)C4)c(=O)c3c2)c1C#N (single isomer, unassigned) [Example 169]
DC50 (A375.10 cells, 24 h): 11.9 nM
Emax [1]: 31.5%

CCN(C)S(=O)(=O)Nc1ccc(F)c(Oc2ccc3ncn([C@H]4COC5(CCN(C(=O)C[C@H]6CC[C@@H](c7ccc8c(C9CCC(=O)NC9=O)nn(C)c8c7)CC6)CC5)C4)c(=O)c3c2)c1C#N (single isomer, unassigned) [Example 170]
DC50 (A375.10 cells, 24 h): 30.9 nM
Emax [1]: 21.2%

CCN(C)S(=O)(=O)Nc1ccc(F)c(Oc2ccc3ncn([C@H]4COC5(CCN(C(=O)CC6(O)CCN(c7cc8c(cc7F)c(N7CCC(=O)NC7=O)nn8C)CC6)CC5)C4)c(=O)c3c2F)c1C#N (single isomer, unassigned) [Example 174]
DC50 (A375.10 cells, 24 h): 25.6 nM
Emax [1]: 21.2%

CCN(C)S(=O)(=O)Nc1ccc(F)c(Nc2ccc3ncn([C@H]4COC5(CCN(C(=O)CC6(O)CCN(c7cc8c(cc7F)c(N7CCC(=O)NC7=O)nn8C)CC6)CC5)C4)c(=O)c3c2)c1C#N (single isomer, unassigned) [Example 178]
DC50 (A375.10 cells, 24 h): 6.13 nM
Emax [1]: 19.1%

CCN(C)S(=O)(=O)Nc1ccc(F)c(Oc2ccc3ncn([C@H]4COC5(CCN(C(=O)CC6(O)CCN(c7cc8c(cc7F)c(N7CCC(=O)NC7=O)nn8C)CC6)CC5)C4)c(=O)c3c2OC)c1C#N (single isomer, unassigned) [Example 181]
DC50 (A375.10 cells, 24 h): 19.9 nM
Emax [1]: 19.1%

CCN(C)S(=O)(=O)Nc1ccc(F)c(Nc2ccc3ncn([C@H]4COC5(CCN(C(=O)CC6(O)CCN(c7cc8c(cc7F)c(N7CCC(=O)NC7=O)nn8C)CC6)CC5)C4)c(=O)c3c2F)c1C#N (single isomer, unassigned) [Example 184]
DC50 (A375.10 cells, 24 h): 8.55 nM
Emax [1]: 18%

CCN(C)S(=O)(=O)Nc1ccc(F)c(Nc2ccc3ncn([C@H]4COC5(CCN(C(=O)CC6(O)CCN(c7cc8c(cc7F)c(N7CCC(=O)NC7=O)nn8C)CC6)CC5)C4)c(=O)c3c2Cl)c1C#N (single isomer, unassigned) [Example 185]
DC50 (A375.10 cells, 24 h): 5.77 nM
Emax [1]: 18.5%

CCN(C)S(=O)(=O)Nc1ccc(F)c(Nc2ccc3ncn([C@H]4COC5(CCN(C(=O)CC6CCN(c7cc8c(cc7F)c(N7CCC(=O)NC7=O)nn8C)CC6)CC5)C4)c(=O)c3c2F)c1C#N (single isomer, unassigned) [Example 202]
DC50 (A375.10 cells, 24 h): 5.17 nM
Emax [1]: 23.9%

CCN(C)S(=O)(=O)Nc1ccc(F)c(Oc2ccc3ncn([C@H]4COC5(CCN(C(=O)CN6CC[C@H](c7cc8c(cc7F)c(N7CCC(=O)NC7=O)nn8C)C(F)(F)C6)CC5)C4)c(=O)c3c2)c1C#N (single isomer, unassigned) [Example 203]
DC50 (A375.10 cells, 24 h): 37.5 nM
Emax [1]: 11.3%

CCN(C)S(=O)(=O)Nc1ccc(F)c(Oc2ccc3ncn([C@H]4COC5(CCN(C(=O)CN6CC[C@@H](c7cc8c(cc7F)c(N7CCC(=O)NC7=O)nn8C)C(F)(F)C6)CC5)C4)c(=O)c3c2)c1C#N (single isomer, unassigned) [Example 204]
DC50 (A375.10 cells, 24 h): 29.8 nM
Emax [1]: 10.9%

CCN(C)S(=O)(=O)Nc1ccc(F)c(Oc2ccc3ncc(C4COC5(CCN(C(=O)CC6(O)CCN(c7cc8c(cc7F)c(N7CCC(=O)NC7=O)nn8C)CC6)CC5)C4)nc3c2)c1C#N (single isomer, unassigned) [Example 222]
DC50 (A375.10 cells, 24 h): 20 nM
Emax [1]: 24.4%

CCN(C)S(=O)(=O)Nc1ccc(F)c(Oc2ccc3ncc([C@H]4COC5(CCN(C(=O)CC6(O)CCN(c7cc8c(cc7F)c(N7CCC(=O)NC7=O)nn8C)CC6)CC5)C4)c(OC)c3c2)c1C#N (single isomer, unassigned) [Example 225]
DC50 (A375.10 cells, 24 h): > 5000 nM
Emax [1]: 65.3%

CCN(C)S(=O)(=O)Nc1ccc(F)c(Oc2ccc3ncc([C@@H]4COC5(CCN(C(=O)CC6(O)CCN(c7cc8c(cc7F)c(N7CCC(=O)NC7=O)nn8C)CC6)CC5)C4)c(OC)c3c2)c1C#N (single isomer, unassigned) [Example 226]
DC50 (A375.10 cells, 24 h): 39.4 nM
Emax [1]: 28.2%

CCN(C)S(=O)(=O)Nc1ccc(F)c(Oc2ccc3ncn(-c4cnc(N5CCN(C(=O)CN6CCC(c7ccc(NC8CCC(=O)NC8=O)cc7F)CC6)CC5)nc4)c(=O)c3c2N)c1C#N (stereo in doubt) [Example 102, 5-amino-6-[2-cyano-3-[[ethyl(methyl)sulfamoyl]amino]-6-fluorophenoxy]-3-[2-[4-[2-[4-[4-[[(3S)-2,6-dioxopiperidin-3-yl]amino]-2-fluorophenyl]piperidin-1-yl]acetyl]piperazin-1-yl]pyrimidin-5-yl]-4-oxoquinazoline]
DC50 (A375.10 cells, 24 h): 15 nM
HiBit 24 h Emax [1]: 9.75%

CCN(C)S(=O)(=O)Nc1ccc(F)c(Oc2ccc3ncn(CCC4CCN(C(=O)CN5CCC(c6ccc(NC7CCC(=O)NC7=O)cc6F)CC5)CC4)c(=O)c3c2)c1C#N (centres unmarked) [Example 1, 6-[2-cyano-3-[[ethyl(methyl)sulfamoyl]amino]-6-fluorophenoxy]-3-[2-[1-[2-[4-[4-[(2,6-dioxopiperidin-3-yl)amino]-2-fluorophenyl]piperidin-1-yl]acetyl]piperidin-4-yl]ethyl]-4-oxoquinazoline]
DC50 (A375.10 cells, 24 h): 46.9 nM
Emax [1]: 13.9%

CCN(C)S(=O)(=O)Nc1ccc(F)c(Oc2ccc3ncn(CCC4CCN(C(=O)CN5CCC(c6ccc(C7CCC(=O)NC7=O)cc6F)CC5)CC4)c(=O)c3c2)c1C#N (centres unmarked) [Example 2, 6-[2-cyano-3-[[ethyl(methyl)sulfamoyl]amino]-6-fluorophenoxy]-3-[2-[1-[2-[4-[4-(2,6-dioxopiperidin-3-yl)-2-fluorophenyl]piperidin-1-yl]acetyl]piperidin-4-yl]ethyl]-4-oxoquinazoline]
DC50 (A375.10 cells, 24 h): 48.6 nM
Emax [1]: 13.5%

CCN(C)S(=O)(=O)Nc1ccc(F)c(Oc2ccc3ncn(CCC4CCN(C(=O)CN5CCC(c6ccc(NC7CCC(=O)NC7=O)c(F)c6)CC5)CC4)c(=O)c3c2)c1C#N (centres unmarked) [Example 3, 6-[2-cyano-3-[[ethyl(methyl)sulfamoyl]amino]-6-fluorophenoxy]-3-[2-[1-[2-[4-[4-[(2,6-dioxopiperidin-3-yl)amino]-3-fluorophenyl]piperidin-1-yl]acetyl]piperidin-4-yl]ethyl]-4-oxoquinazoline]
DC50 (A375.10 cells, 24 h): 35.9 nM
Emax: 14.7%
